Columns and labels:
[1] = target: P70S6K (T412E mutant, Millipore) (Homo sapiens (Human), UniProt P23443, T412E); assay: P70S6K enzyme assay; format: biochemical; conditions: 24 μM ATP, 90 min at 25° C.
Experimental: P70S6K inhibitor compounds were diluted and plated in 96 well plates. A reaction mixture including the following components was then added to the compound plate to initiate the enzyme reaction; P70S6K (3 nM, T412E mutant, Millipore) was mixed with 24 μM ATP in an assay buffer containing 100 mM Hepes (pH 7.5), 5 mM MgCl2, 1 mM DTT, 0.015% Brij and 1 μM of the substrate peptide FITC-AHA-AKRRRLSSLRA-OH (derived from the S6 ribosomal protein sequence, FITC=fluorescein isothiocyanate, AHA=6-aminohexanoic acid). The reaction was incubated for 90 min at 25° C., before the addition of 10 mM EDTA to stop the reaction. The proportion of substrate and product (phosphorylated) peptide was analysed on a Caliper Life Sciences Lab Chip 3000, using a pressure of −1.4 psi, and upstream and downstream voltages of −3000 and −700 respectively. Product peaks were resolved before substrate peaks on the resulting chromatograms.

His-AKT (Full Length) = His-AKT (Full Length) (Homo sapiens (Human), UniProt P31749); assay: AKT enzyme assay; format: biochemical; conditions: 160 uM ATP, 90 min at 25° C.
Experimental: A TTP Mosquito liquid handling instrument was used to place 125 nl of the appropriate concentration of inhibitor in 100% DMSO (for a dose response curve calculation) into each well of a 384-well plate. To this reaction components were added to a final volume of 12.5 μl: • 0.1 ng/μl His-AKT (Full Length), (Invitrogen, Part # P2999, Lot #641228C). • 160 uM ATP (Fluka, 02055) • 1 mM DTT (Sigma, D0632) • 1 mM MgCl2 (Sigma, M1028) • 1 μM substrate peptide (sequence FITC-AHA-GRPRTSSFAEG-NH2), • synthesized by Tufts Peptide Synthesis service. • 100 mM HEPES pH 7.5 (Calbiochem, 391338) • 0.015% Brij-35 (Sigma, B4184)
The reaction was incubated for 90 min at 25° C., and then stopped by the addition of 70 μl of Stop buffer (100 mM HEPES pH 7.5, 0.015% Brij-35, 10 mM EDTA (Sigma, E7889)).
The plate was read on a Caliper LC 3000 in an Off-Chip mobility shift assay format, using the following parameters for a 12-sipper chip: screening pressure −2.3 psi, upstream voltage −500, and downstream voltage −3000. These conditions caused unphosphorylated substrate and phosphorylated product peptide to resolve as separate peaks allowing direct measurement of percentage of conversion of substrate to product. The percent conversion was plotted against concentration of inhibitor to produce a sigmoidal dose response curve, from which an IC50 was calculated.

Sequence of P70S6K (T412E mutant, Millipore) (P23443 whole entry T412E): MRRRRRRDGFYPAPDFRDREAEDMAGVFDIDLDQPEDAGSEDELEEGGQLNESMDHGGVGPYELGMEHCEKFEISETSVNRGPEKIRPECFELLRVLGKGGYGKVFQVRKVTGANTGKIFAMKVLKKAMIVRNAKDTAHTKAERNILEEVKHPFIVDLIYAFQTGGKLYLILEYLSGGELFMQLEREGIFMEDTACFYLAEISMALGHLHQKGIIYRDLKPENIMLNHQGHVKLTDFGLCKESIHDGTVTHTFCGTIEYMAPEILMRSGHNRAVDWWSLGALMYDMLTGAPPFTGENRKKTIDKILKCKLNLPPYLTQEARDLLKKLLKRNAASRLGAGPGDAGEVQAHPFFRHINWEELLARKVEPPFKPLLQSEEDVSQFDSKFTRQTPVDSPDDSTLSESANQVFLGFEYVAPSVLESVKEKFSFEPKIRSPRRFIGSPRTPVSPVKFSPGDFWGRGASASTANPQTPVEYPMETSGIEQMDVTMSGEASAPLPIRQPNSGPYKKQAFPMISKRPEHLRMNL
Sequence of His-AKT (Full Length) (P31749 whole entry): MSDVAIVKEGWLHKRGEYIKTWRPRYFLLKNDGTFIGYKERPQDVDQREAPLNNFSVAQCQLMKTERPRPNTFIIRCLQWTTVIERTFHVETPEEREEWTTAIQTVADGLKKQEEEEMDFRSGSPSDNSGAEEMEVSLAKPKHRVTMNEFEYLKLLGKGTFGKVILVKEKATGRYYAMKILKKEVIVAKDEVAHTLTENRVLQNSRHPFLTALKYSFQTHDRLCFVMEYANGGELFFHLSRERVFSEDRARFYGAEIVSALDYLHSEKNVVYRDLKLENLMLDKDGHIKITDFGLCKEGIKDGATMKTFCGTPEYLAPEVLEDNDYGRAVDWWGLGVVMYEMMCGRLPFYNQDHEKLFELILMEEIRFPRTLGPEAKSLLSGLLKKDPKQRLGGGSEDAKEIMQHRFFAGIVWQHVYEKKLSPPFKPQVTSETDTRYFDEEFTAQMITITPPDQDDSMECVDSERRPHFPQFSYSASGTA

Row | Compound | IC50 [1] [nM] | IC50 (His-AKT (Full Length)) [nM]
1 | CN(C)CC(c1ccc(C(F)(F)F)cc1)N1CCN(c2ncnc3c2NC(=O)CN3)CC1 (stereo not shown) [Compound A28, 4-{4-[2-dimethylamino-1-(4-trifluoromethyl-phenyl)-ethyl]-piperazin-1-yl}-7,8-dihydro-5H-pteridin-6-one] | 501 to 1000 | 101 to 500
2 | O=C1CNc2ncnc(N3CCN(C(CN4CCCC4)c4ccc(F)cc4)CC3)c2N1 (stereo not shown) [Compound A29, 4-{4-[1-(4-fluoro-phenyl)-2-(pyrrolidin-yl)-ethyl]-piperazin-1-yl}-7,8-dihydro-5H-pteridin-6-one] | > 1000 | > 1000
3 | O=C1CNc2ncnc(N3CCN(C(CN4CCCC4)c4ccc(Cl)cc4)CC3)c2N1 (stereo not shown) [Compound A30, 4-{4-[1-(4-chloro-phenyl)-2-(pyrrolidin-yl)-ethyl]-piperazin-1-yl}-7,8-dihydro-5H-pteridin-6-one] | 501 to 1000 | 501 to 1000
4 | O=C1CNc2ncnc(N3CCN(C(CN4CCCCC4)c4ccc(F)cc4)CC3)c2N1 (stereo not shown) [Compound A31, 4-{4-[1-(4-fluoro-phenyl)-2-(piperidin-yl)-ethyl]-piperazin-1-yl}-7,8-dihydro-5H-pteridin-6-one] | > 1000 | > 1000
5 | O=C1CNc2ncnc(N3CCN(C(CN4CCCCC4)c4ccc(Cl)cc4)CC3)c2N1 (stereo not shown) [Compound A32, 4-{4-[1-(4-chloro-phenyl)-2-(piperidin-yl)-ethyl]-piperazin-1-yl}-7,8-dihydro-5H-pteridin-6-one] | > 1000 | 501 to 1000
6 | O=C1CNc2ncnc(N3CCN(C(CN4CCCCC4)c4ccc(C(F)(F)F)cc4)CC3)c2N1 (stereo not shown) [Compound A33, 4-{4-[1-(4-trifluoro-phenyl)-2-(piperidin-yl)-ethyl]-piperazin-1-yl}-7,8-dihydro-5H-pteridin-6-one] | > 1000 | 501 to 1000
7 | O=C1CNc2ncnc(N3CCN(C(CN4CCCC4)c4ccc(C(F)(F)F)cc4)CC3)c2N1 (stereo not shown) [Compound A34, 4-{4-[2-Pyrrolidin-1-yl-1-(4-trifluoromethyl-phenyl)-ethyl]-piperazin-1-yl}-7,8-dihydro-5H-pteridin-6-one] | > 1000 | > 1000
8 | O=C1CNc2ncnc(N3CCN(C(CN4CCCC4)c4ccccc4F)CC3)c2N1 (stereo not shown) [Compound A35, 4-(4-(1-(2-fluorophenyl)-2-(pyrrolidin-1-yl)ethyl)piperazin-1-yl)-7,8-dihydropteridin-6(5H)-one] | > 1000 | > 1000
9 | CN(C)CC(c1ccccc1F)N1CCN(c2ncnc3c2NC(=O)CN3)CC1 (stereo not shown) [Compound A36, 4-(4-(2-(dimethylamino)-1-(2-fluorophenyl)ethyl)piperazin-1-yl)-7,8-dihydropteridin-6(5H)-one] | > 1000 | > 1000
10 | O=C1CNc2ncnc(N3CCN(C(CN4CCC4)c4ccccc4F)CC3)c2N1 (stereo not shown) [Compound A37, 4-(4-(2-(azetidin-1-yl)-1-(2-fluorophenyl)ethyl)piperazin-1-yl)-7,8-dihydropteridin-6(5H)-one] | > 1000 | > 1000
11 | O=C1CNc2ncnc(N3CCN(C(CN4CCCCC4)c4ccccc4F)CC3)c2N1 (stereo not shown) [Compound A38, 4-(4-(1-(2-fluorophenyl)-2-(piperidin-1-yl)ethyl)piperazin-1-yl)-7,8-dihydropteridin-6(5H)-one] | > 1000 | > 1000
12 | NCC(c1ccccc1Cl)N1CCN(c2ncnc3c2NC(=O)CN3)CC1 (stereo not shown) [Compound A39, 4-(4-(2-amino-1-(2-chlorophenyl)ethyl)piperazin-1-yl)-7,8-dihydropteridin-6(5H)-one] | > 1000 | > 1000
13 | CN(C)CC(c1ccccc1Cl)N1CCN(c2ncnc3c2NC(=O)CN3)CC1 (stereo not shown) [Compound A40, 4-(4-(1-(2-chlorophenyl)-2-(dimethylamino)ethyl)piperazin-1-yl)-7,8-dihydropteridin-6(5H)-one] | > 1000 | > 1000
14 | CNCC(c1ccccc1Cl)N1CCN(c2ncnc3c2NC(=O)CN3)CC1 (stereo not shown) [Compound A41, 4-(4-(1-(2-chlorophenyl)-2-(methylamino)ethyl)piperazin-1-yl)-7,8-dihydropteridin-6(5H)-one] | > 1000 | > 1000

— patent US10287300B2 (Merck Patent GmbH, priority 2012, dated 2019)
